Assay results as given in patent US20150164762A1, “USE OF ETHANOLAMINE PHOSPHATE” (priority 2012, published 2015).
Where “and” joins values, the source holds several entries; their conditions need not be identical. Identical values can stand only once.

Tested on: BEAS-2B
Test: Comprehensive gene expression analysis with Whole Human Genome DNA microarray after EP treatment
Format: cell-based
Procedure: Cells of the established normal human airway epithelial cell line BEAS-2B were used in the experiment. These cells were expansively cultured in 10% FBS RPMI-1640, and seeded at a density of 1×10^5/cm^2 on a 24-well plate. After 24 hours 0.1% FBS RPMI-1640 was substituted, and EP was administered to a final concentration of 0 or 1 mM (n=4). After 24 hours, the cells were used as the DNA microarray samples. RNA was extracted using a QIAGEN RNeasy Mini Kit. The DNA microarray test was performed using a Whole Human Genome DNA microarray 4×44K (Agilent), and the necessary labeling reagents and the like for the DNA microarray test were all from Agilent. The DNA microarray test data were analyzed statistically with GeneSpring (Agilent) dedicated analysis software, and gene function analysis (Gene Ontology (GO) analysis) was performed based on differential expression. The purpose of the GO analysis is to determine stochastically the degree to which gene sets with statistically significant differential expression correspond to known functional classification gene sets. […] The p-value is calculated according to the following formula.

[1] = probe A_23_P30122, NM_000586, EP vs control
[2] = probe A_23_P34804, 1 mM EP, 24 h
[3] = probe A_23_P37736, 1 mM EP, 24 h
[4] = probe A_23_P40453, NM_001236, EP vs control
[5] = probe A_23_P45133, NM_27087, EP vs control
[6] = probe A_23_P48740, NM_013989, EP vs control
[7] = probe A_23_P51361, NM_175852, EP vs control
[8] = probe A_23_P53467, 1 mM EP, 24 h
[9] = probe A_23_P54144, 1 mM EP, 24 h
[10] = probe A_23_P55544, 1 mM EP, 24 h
[11] = probe A_23_P56922, 1 mM EP, 24 h
[12] = probe A_23_P56933, 1 mM EP, 24 h
[13] = probe A_23_P58180, NM_207352, EP vs control
[14] = probe A_23_P62959, 1 mM EP, 24 h
[15] = probe A_23_P63898, 1 mM EP, 24 h
[16] = probe A_23_P64129, NM_006410, EP vs control
[17] = probe A_23_P64129, 1 mM EP, 24 h
[18] = probe A_23_P67169, NM_000641, EP vs control
[19] = probe A_23_P68487, NM_001719, EP vs control
[20] = probe A_23_P69030, 1 mM EP, 24 h
[21] = probe A_23_P70398, NM_001025370, EP vs control
[22] = probe A_23_P72096, NM_000575, EP vs control
[23] = probe A_23_P72096, 1 mM EP, 24 h
[24] = probe A_23_P72285, 1 mM EP, 24 h
[25] = probe A_23_P74081, 1 mM EP, 24 h
[26] = probe A_23_P74380, 1 mM EP, 24 h
[27] = probe A_23_P76078, NM_016584, EP vs control
[28] = probe A_23_P81805, NM_001025366, EP vs control
[29] = probe A_23_P82550, 1 mM EP, 24 h
[30] = probe A_23_P87560, 1 mM EP, 24 h
[31] = probe A_23_P88404, 1 mM EP, 24 h
[32] = probe A_23_P88589, 1 mM EP, 24 h
[33] = probe A_23_P89550, 1 mM EP, 24 h
[34] = probe A_23_P89835, 1 mM EP, 24 h
[35] = probe A_23_P90601, NM_182915, EP vs control
[36] = probe A_23_P91504, 1 mM EP, 24 h

NCCOP(=O)(O)O [EP, Ethanolamine phosphate]
BDH1 gene expression, log2 [ratio] (probe A_23_P29754, NM_203314, EP vs control): 0.548 | IL2 gene expression, R* ratio to control [1]: 0.537 times | IL2 gene expression, log2 [ratio] [1]: −0.898 | NTRK1 expression R: Ratio to control [2]: 0.261 times | NTRK1 expression log2 [ratio] [2]: −1.936 | TNFRSF17 expression R*: Ratio to control [3]: 2.525 times | TNFRSF17 expression log2 [ratio] [3]: 1.336 | CBR3 gene expression, R* ratio to control [4]: 1.406 times | CBR3 gene expression, log2 [ratio] [4]: 0.491 | CSF1 gene expression, R* ratio to control [5]: 0.602 times | CSF1 gene expression, log2 [ratio] [5]: −0.732 | DIO2 gene expression, R* ratio to control [6]: 1.694 times | DIO2 gene expression, log2 [ratio] [6]: 0.761 | TXLNA gene expression, R* ratio to control [7]: 0.560 times | TXLNA gene expression, log2 [ratio] [7]: −0.837 | IKBIP expression R*: Ratio to control [8]: 0.626 times | IKBIP expression log2 [ratio] [8]: −0.675 | BMP4 expression R*: Ratio to control [9]: 1.820 times | BMP4 expression log2 [ratio] [9]: 0.864 | CCBE1 expression R*: Ratio to control [10]: 1.755 times | CCBE1 expression log2 [ratio] [10]: 0.811 | HSPE1 expression R*: Ratio to control [11]: 1.531 times | HSPE1 expression log2 [ratio] [11]: 0.615 | RTN4 expression R*: Ratio to control [12]: 1.510 times | RTN4 expression log2 [ratio] [12]: 0.594 | CYP4V2 gene expression, R* ratio to control [13]: 2.178 times | CYP4V2 gene expression, log2 [ratio] [13]: 1.123 | PHLDA3 expression R: Ratio to control [14]: 0.271 times | PHLDA3 expression log2 [ratio] [14]: −1.884 | FAS expression R*: Ratio to control [15]: 0.364 times | FAS expression log2 [ratio] [15]: −1.457 | HTATIP2 gene expression, R* ratio to control [16]: 1.735 times | HTATIP2 gene expression, log2 [ratio] [16]: 0.795 | HTATIP2 expression R*: Ratio to control [17]: 1.735 times | HTATIP2 expression log2 [ratio] [17]: 0.795 | IL11 gene expression, R* ratio to control [18]: 0.358 times | IL11 gene expression, log2 [ratio] [18]: −1.482 | BMP7 gene expression, R* ratio to control [19]: 0.136 times | BMP7 gene expression, log2 [ratio] [19]: −2.883 | COL8A1 expression R*: Ratio to control [20]: 1.999 times | COL8A1 expression log2 [ratio] [20]: 0.999 | VEGFA gene expression, R* ratio to control [21]: 0.501 times | VEGFA gene expression, log2 [ratio] [21]: −0.997 | IL1A gene expression, R* ratio to control [22]: 0.216 times | IL1A gene expression, log2 [ratio] [22]: −2.211 | IL1A expression R*: Ratio to control [23]: 0.216 times | IL1A expression log2 [ratio] [23]: −2.211 | YWHAE expression R*: Ratio to control [24]: 1.529 times | YWHAE expression log2 [ratio] [24]: 0.813 and 0.613 | TP73 expression R*: Ratio to control [25]: 0.557 times | TP73 expression log2 [ratio] [25]: −0.843 | WARS2 expression R*: Ratio to control [26]: 1.594 times | WARS2 expression log2 [ratio] [26]: 0.673 | IL23A gene expression, R* ratio to control [27]: 0.508 times | IL23A gene expression, log2 [ratio] [27]: −0.977 | VEGFA gene expression, R* ratio to control [28]: 0.611 times | VEGFA gene expression, log2 [ratio] [28]: −0.710 | STK17A expression R*: Ratio to control [29]: 0.623 times | STK17A expression log2 [ratio] [29]: −0.683 | BTG1 expression R*: Ratio to control [30]: 0.41B | BTG1 expression log2 [ratio] [30]: −1.265 | TGFB3 expression R*: Ratio to control [31]: 0.590 times | TGFB3 expression log2 [ratio] [31]: −0.761 | NR2F2 expression R*: Ratio to control [32]: 1.662 times | NR2F2 expression log2 [ratio] [32]: 0.733 | NLRP1 expression R*: Ratio to control [33]: 0.483 times | NLRP1 expression log2 [ratio] [33]: −1.048 | MAPRE2 expression R*: Ratio to control [34]: 1.538 times | MAPRE2 expression log2 [ratio] [34]: 0.621 | STEAP3 gene expression, R* ratio to control [35]: 2.194 times | STEAP3 gene expression, log2 [ratio] [35]: 1.134 | ITSN1 expression R*: Ratio to control [36]: 3.487 times | ITSN1 expression log2 [ratio] [36]: 1.802 | CIDEC expression R*: Ratio to control (probe A_23_P92025, 1 mM EP, 24 h): 0.593 times
